ChEMBL document CHEMBL1155278, “3,4-Diaryl-isoxazoles and -imidazoles as potent dual inhibitors of p38alpha mitogen activated protein kinase and casein kinase 1delta” (J Med Chem, 2009)
pIC50: −log10 of the molar value.

Assays:
[1] = Cell cycle arrest in human AC1-M88 cells assessed as accumulation at S phase at 3.32 uM after 48 hrs by propidium iodide staining-based FACS analysis; assay type: functional
[2] = Cell cycle arrest in human AC1-M88 cells assessed as accumulation at G1 phase at 3.32 uM after 48 hrs by propidium iodide staining-based FACS analysis; assay type: functional
[3] = target: T1, Casein kinase I isoform delta (Rattus norvegicus, UniProt Q06486); experiment: Inhibition of GST-fused rat CK1delta by Cherenkov counting in presence of 20 uM ATP
[4] = target: T2, Casein kinase I isoform delta (Homo sapiens, UniProt P48730); experiment: Inhibition of recombinant CK1delta kinase domain by Cherenkov counting
Target sequence in this assay (P48730 whole entry, the tested form may be a part, canonical isoform): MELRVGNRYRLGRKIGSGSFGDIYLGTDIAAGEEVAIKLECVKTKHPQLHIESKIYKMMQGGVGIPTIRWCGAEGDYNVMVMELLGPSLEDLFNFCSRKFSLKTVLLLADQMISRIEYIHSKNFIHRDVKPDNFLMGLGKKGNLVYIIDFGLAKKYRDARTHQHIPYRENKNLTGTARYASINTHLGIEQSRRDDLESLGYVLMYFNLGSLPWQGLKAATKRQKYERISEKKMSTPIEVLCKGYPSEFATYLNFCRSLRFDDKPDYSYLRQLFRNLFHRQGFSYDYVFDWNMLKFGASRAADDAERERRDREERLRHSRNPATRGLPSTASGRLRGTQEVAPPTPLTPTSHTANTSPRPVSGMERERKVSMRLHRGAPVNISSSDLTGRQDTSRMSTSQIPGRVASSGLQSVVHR

[5] = Cell cycle arrest in human AC1-M88 cells assessed as accumulation at G2 phase at 3.32 uM after 48 hrs by propidium iodide staining-based FACS analysis; assay type: functional
[6] = Cell cycle arrest in human AC1-M88 cells assessed as accumulation at subG1 phase at 3.32 uM after 48 hrs by propidium iodide staining-based FACS analysis; assay type: functional
[7] = target: T3, Mitogen-activated protein kinase 14 (Homo sapiens, UniProt Q16539); experiment: Inhibition of p38alpha by Cherenkov counting
[8] = target: T3, Mitogen-activated protein kinase 14; conditions: 10 uM
[9] = target: T1, Casein kinase I isoform delta
[10] = target: T2, Casein kinase I isoform delta; experiment: Inhibition of GST-fused human full length CK1delta expressed in Escherichia coli at 1 uM
Target sequence in this assay (P48730 whole entry, looked up, the tested form may be a part, canonical isoform): as the sequence (P48730 whole entry, the tested form may be a part, canonical isoform) above

[11] = target: T2, Casein kinase I isoform delta; experiment: Inhibition of GST-fused human full length CK1delta expressed in Escherichia coli at 25 uM
Target sequence in this assay (P48730 whole entry, looked up, the tested form may be a part, canonical isoform): as the sequence (P48730 whole entry, the tested form may be a part, canonical isoform) above

[12] = target: Casein kinase I isoform delta (Oryctolagus cuniculus, UniProt P81123); experiment: Inhibition of rabbit skeletal muscle CK1delta by liquid scintillation counting
[13] = target: T2, Casein kinase I isoform delta; experiment: Inhibition of human CK1delta
Target sequence in this assay (P48730 whole entry, the tested form may be a part, canonical isoform): as above

T1 sequence (Q06486 whole entry, the tested form may be a part, canonical isoform): as the sequence (P48730 whole entry, the tested form may be a part, canonical isoform) above, with I381V counted along it
T3 sequence (Q16539 whole entry): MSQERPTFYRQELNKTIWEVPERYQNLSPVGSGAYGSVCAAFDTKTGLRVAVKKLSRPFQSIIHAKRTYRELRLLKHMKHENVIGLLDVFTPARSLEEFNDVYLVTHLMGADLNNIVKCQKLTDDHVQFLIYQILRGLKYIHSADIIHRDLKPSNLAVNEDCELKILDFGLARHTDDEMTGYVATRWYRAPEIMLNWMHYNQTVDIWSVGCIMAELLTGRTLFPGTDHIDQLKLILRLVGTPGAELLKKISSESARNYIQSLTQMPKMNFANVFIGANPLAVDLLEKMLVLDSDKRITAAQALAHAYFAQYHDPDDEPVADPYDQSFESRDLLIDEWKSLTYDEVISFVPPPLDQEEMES
Sequence of Casein kinase I isoform delta (Oryctolagus cuniculus, UniProt P81123) (P81123 whole entry, canonical isoform): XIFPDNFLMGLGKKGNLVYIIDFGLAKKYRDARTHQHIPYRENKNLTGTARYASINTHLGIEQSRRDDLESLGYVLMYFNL

| SMILES | pIC50 [3] | pIC50 [4] | pIC50 [7] | further results |
| --- | --- | --- | --- | --- |
| COc1ccc(/C=C/C(=O)Nc2cc(-c3c(-c4ccc(F)cc4)noc3C(C)C)ccn2)c(OC)c1 | 7.33 | 7.48 | 5.60 | Activity [1]: 14.8%; Activity [2]: 33%; Activity [5]: 14.8%; Activity [6]: 34.4% |
| CC(Oc1ccccc1)C(=O)Nc1cc(-c2c(-c3ccc(F)cc3)noc2C(C)C)ccn1 (racemic) | 6.47 | 6.09 | 6.05 |  |
| NC(=O)c1ccc(-c2nc(-c3ccc4c(c3)OCCO4)c(-c3ccccn3)[nH]2)cc1 |  |  |  | inhibition [8]: 62%; pIC50 [9]: 6.52 |
| C[S+]([O-])c1ccc(-c2nc(-c3ccc(F)cc3)c(-c3ccncc3)[nH]2)cc1 (centres undefined) |  |  |  | inhibition [10]: 92% |
| CC(C)c1onc(-c2ccc(F)cc2)c1-c1ccnc(N[C@@H](C)c2ccccc2)c1 |  | 5.80 | 8.22 |  |
| Oc1ccc(-c2nc(-c3ccc(F)cc3)c(-c3ccncc3)[nH]2)cc1 |  |  |  | inhibition [10]: 79% |
| NCCNS(=O)(=O)c1ccc(Cl)c2ccncc12 |  |  |  | inhibition [11]: 88%; pIC50 [12]: 5.00 |
| COc1cc(OC)c(C=C2C(O)=Nc3ccccc32)c(OC)c1 [IC261] |  |  |  | pIC50 [13]: 6.00 |
| CCC(C)Nc1cc(-c2c(-c3ccc(F)cc3)noc2C(C)C)ccn1 (centres undefined) |  |  | 7.52 |  |
| CC(C)c1onc(-c2ccc(F)cc2)c1-c1ccnc(N[C@H](C)c2ccccc2)c1 |  |  | 6.35 |  |
| CC(C)c1onc(-c2ccc(F)cc2)c1-c1ccnc(NC2CCOCC2)c1 |  | 5.60 | 7.22 |  |
| CC(C)c1onc(-c2ccc(F)cc2)c1-c1ccnc(NC(=O)Cc2ccc(F)cc2)c1 | 7.05 | 6.96 | 5.81 |  |
| CC(=O)Nc1cc(-c2c(-c3ccc(F)cc3)noc2C(C)C)ccn1 | 6.48 | 6.15 | 6.52 |  |
